Literature values as cited in patent publication US8765195B2, “Methods and compositions for increasing sex steroids and growth hormones” (Quality IP Holdings, Inc., priority 2012, dated 2014).

Assays:
hGH = settings: for effect on hGH: other amino acids, literature
[1] = subcutaneous injection of 0.06 IU, GH deficient subjects

Row | Molecule | effect on hGH (hGH) | other results
1 | N=C(N)NCCC[C@H](N)C(=O)O [arginine] | – | elevation of serum hGH levels (hGH; 30 g, males): 8.6 fold; increase of hGH levels (hGH; intravenous infusion of 183 mg/kg body weight, females): > 20 fold
2 | N[C@@H](Cc1c[nH]cn1)C(=O)O [histidine] | marked increases in hGH | –
3 | NCCCC[C@H](N)C(=O)O [lysine] | marked increases in hGH | –
4 | CSCC[C@H](N)C(=O)O [methionine] | marked increases in hGH | –
5 | NCCC[C@H](N)C(=O)O [ornithine] | marked increases in hGH | –
6 | N[C@@H](Cc1ccccc1)C(=O)O [phenylalanine] | marked increases in hGH | –
7 | HGH: human growth hormone given by subcutaneous injection to GH deficient subjects | – | mean levels of GH reached [1]: 0.4 ng/mL
